Data reported in patent publication US8871812B2, “Therapeutic regimen comprising PEG-interferon, ribavirin and VX-950 for the treatment of hepatitis” (priority 2008, dated 2014).

Assays:
HCV genotype 1 [1] = test: 14-day multiple-dose study in HCV genotype 1 subjects: HCV RNA (study VX04-950-101); format: in vivo, human
Procedure: (§1) Accordingly, applicants determined the changes in serum neopterin concentration as a marker of monocyte/macrophage activity during administration of an inhibitor of (HCV) NS3·4A protease. As described herein, VX-950 was administered for 14 days in a randomized, double blind, placebo controlled, multiple-dose study in 34 patients infected with HCV genotype 1. Patients received VX-950 450 mg q8h (n=10), 750 mg q8h (n=8), 1250 mg q12h (n=10), or placebo (n=6). Serum neopterin concentrations were measured by a quantitative competitive ELISA (ELItest® Neopterin, Brahms, Hennigsdorf, Germany) at pretreatment, at day 7 and 14, and at day 10 of follow-up. The lower limit of detection (LLD) was 2 nmol/I. HCV RNA was assessed at frequent intervals during the study by real-time PCR (COBAS TAQMAN™ HCV Test; linear dynamic range of 3.0 ×10^1 to 2.0 ×10^8 HCV RNA IU/ml; LLD of 10 HCV RNA IU/ml; Roche Diagnostics, Branchburg, N.J.).
All other 34 subjects completed the study.
The HCV positive subjects were tested post-treatment to monitor HCV RNA levels' return to baseline.

neopterin = test: Serum neopterin concentration (competitive ELISA) during 14-day VX-950 dosing; format: in vivo, human; conditions: 450 mg q8h and 1250 mg q12h dose groups, versus 750 mg q8h
Procedure: as §1

NS3 protease = test: In vitro cleavage of TRIF; format: biochemical, HCV
Source text: Furthermore, NS3/4A is known to be involved in evasion of innate defenses, by e.g., TRIF-dependent mechanisms (as well as viral polyprotein processing). This immune evasion leads to viral persistence. Accordingly, a compound that inhibits both viral polyprotein processing and evasion of innate defenses is desirable.
TRIF binds to non-prime side of the NS3 protease active site. VX-950 binds to the same non-prime side of the active site as TRIF and blocks TRIP cleavage.

[2] = C208 Phase 2 study: pharmacokinetics of TVR in plasma; format: in vivo, human; conditions: for Cmin, mean ± SD: Week 8
Procedure: Assessment of virologic breakthrough (defined as a >1-log 10 increase in HCV RNA from nadir, or HCV RNA>100 IU/mL in subjects whose HCV RNA had previously become undetectable [<10 IU/mL] at all assessment timepoints) was performed. Pharmacokinetics and viral dynamics were assessed by pre-defined serial measurements of plasma concentrations of TVR and HCV RNA, respectively, from baseline to Week 12. Pharmacokinetic analysis of TVR was performed using non-compartmental methods for data from full pharmacokinetic profiles. A viral dynamics model, which included fixed effects for treatment and random effects for clearance, drug effect, drop and death rate in infected cells with unstructured variance covariance matrix, was also constructed. Safety and tolerability were assessed by monitoring adverse events (AEs), laboratory abnormalities and cardiovascular parameters.

HCV genotype 1 [3] = test: Phase 2 studies PROVE1 and PROVE2: sustained virologic response; format: in vivo, human; conditions: treatment-naïve genotype 1 patients
[4] = male, human, in vivo
Procedure: VX-950 was examined in a randomized, double-blind, placebo-controlled single-dose escalation study. 25 healthy male volunteers were enrolled and each received multiple single doses of VX-950 (at least 7 days apart, 3 doses of VX-950 at increasing dose levels) and 1 dose of placebo.
A dose escalation scheme was used that combined dose doubling and modified Fibonacci to be aggressive in the lower dose range and conservative in the higher dose range.
A pharmacokinetics analysis was performed using the statistical moment approach.

[5] = human, in vivo
[6] = C208 Phase 2 study: safety, tolerability and discontinuations
[7] = TVR 750 mg q8h + Peg-IFN alfa-2a + RBV (n = 40)
[8] = TVR 750 mg q8h + Peg-IFN alfa-2b + RBV (n = 42)
[9] = TVR 1125 mg q12h + Peg-IFN alfa-2a + RBV (n = 40)
[10] = TVR 1125 mg q12h + Peg-IFN alfa-2b + RBV (n = 39)

CCC[C@H](NC(=O)[C@@H]1[C@H]2CCC[C@H]2CN1C(=O)[C@@H](NC(=O)[C@@H](NC(=O)c1cnccn1)C1CCCCC1)C(C)(C)C)C(=O)C(=O)NC1CC1 [VX-950]
Subjects with maximum change from baseline in HCV RNA >−1 to <0 log10 IU/mL (HCV genotype 1 [1]; 450 mg q8h, 14 days (n = 10)): 0 n (%)
Subjects with maximum change from baseline in HCV RNA >−2 to ≦−1 log10 IU/mL (HCV genotype 1 [1]; 450 mg q8h, 14 days (n = 10)): 0 n (%)
Subjects with maximum change from baseline in HCV RNA >−3 to ≦−2 log10 IU/mL (HCV genotype 1 [1]; 450 mg q8h, 14 days (n = 10)): 1 (10.0) n (%)
Subjects with maximum change from baseline in HCV RNA >−4 to ≦−3 log10 IU/mL (HCV genotype 1 [1]; 450 mg q8h, 14 days (n = 10)): 7 (70.0) n (%)
Subjects with maximum change from baseline in HCV RNA >−5 to ≦−4 log10 IU/mL (HCV genotype 1 [1]; 450 mg q8h, 14 days (n = 10)): 0 n (%)
Subjects with maximum change from baseline in HCV RNA ≧−5 log10 IU/mL (HCV genotype 1 [1]; 450 mg q8h, 14 days (n = 10)): 2 (20.0) n (%)
Subjects with maximum change from baseline in HCV RNA >−1 to <0 log10 IU/mL (HCV genotype 1 [1]; 750 mg q8h, 14 days (n = 8)): 0 n (%)
Subjects with maximum change from baseline in HCV RNA >−2 to ≦−1 log10 IU/mL (HCV genotype 1 [1]; 750 mg q8h, 14 days (n = 8)): 0 n (%)
Subjects with maximum change from baseline in HCV RNA >−3 to ≦−2 log10 IU/mL (HCV genotype 1 [1]; 750 mg q8h, 14 days (n = 8)): 0 n (%)
Subjects with maximum change from baseline in HCV RNA >−4 to ≦−3 log10 IU/mL (HCV genotype 1 [1]; 750 mg q8h, 14 days (n = 8)): 3 (37.5) n (%)
Subjects with maximum change from baseline in HCV RNA >−5 to ≦−4 log10 IU/mL (HCV genotype 1 [1]; 750 mg q8h, 14 days (n = 8)): 3 (37.5) n (%)
Subjects with maximum change from baseline in HCV RNA ≧−5 log10 IU/mL (HCV genotype 1 [1]; 750 mg q8h, 14 days (n = 8)): 2 (25.0) n (%)
Subjects with maximum change from baseline in HCV RNA >−1 to <0 log10 IU/mL (HCV genotype 1 [1]; 1250 mg q12h, 14 days (n = 10)): 0 n (%)
Subjects with maximum change from baseline in HCV RNA >−2 to ≦−1 log10 IU/mL (HCV genotype 1 [1]; 1250 mg q12h, 14 days (n = 10)): 0 n (%)
Subjects with maximum change from baseline in HCV RNA >−3 to ≦−2 log10 IU/mL (HCV genotype 1 [1]; 1250 mg q12h, 14 days (n = 10)): 1 (10.0) n (%)
Subjects with maximum change from baseline in HCV RNA >−4 to ≦−3 log10 IU/mL (HCV genotype 1 [1]; 1250 mg q12h, 14 days (n = 10)): 9 (90.0) n (%)
Subjects with maximum change from baseline in HCV RNA >−5 to ≦−4 log10 IU/mL (HCV genotype 1 [1]; 1250 mg q12h, 14 days (n = 10)): 0 n (%)
Subjects with maximum change from baseline in HCV RNA ≧−5 log10 IU/mL (HCV genotype 1 [1]; 1250 mg q12h, 14 days (n = 10)): 0 n (%)
Subjects with a 3 log10 reduction in HCV-RNA (HCV genotype 1 [1]; within the first three days of treatment, of the 28 subjects receiving VX-950): 26
change in mean neopterin levels (neopterin): decreases in mean neopterin levels were smaller
cleavage of TRIF (NS3 protease): inhibits in vitro cleavage of TRIF
Cmin, mean ± SD [2, 7]: 2624 ± 507 ng/mL
Cmin, mean ± SD [2, 8]: 2569 ± 453 ng/mL
Cmin, mean ± SD [2, 9]: 2134 ± 620 ng/mL
Cmin, mean ± SD [2, 10]: 2321 ± 384 ng/mL
telaprevir Cmax ([2]; in vivo): higher
telaprevir Cmin ([2]; on average, q12h versus q8h dosing schedules): lower
sustained virologic response rate, PROVE2 (HCV genotype 1 [3]; 24-week TVR-containing regimen versus 48-week peginterferon and ribavirin (p=0.01)): 69%
sustained virologic response rate, PROVE1 (HCV genotype 1 [3]; 24-week TVR-containing regimen versus 48-week peginterferon and ribavirin (p=0.02)): 61%
VX-950 eliminated unchanged in the urine [4]: Less than 2%
overall proportion of TVR discontinuations for any reason ([5]; 4 weeks): 12%
Treatment discontinuations (all drugs), Any reason ([5]; 12 weeks): 24 (15) n (%)
Treatment discontinuations (all drugs), Due to AEs ([5]; 12 weeks): 13 (8) n (%)
AE: Anemia [6, 7]: 18 (45) n (%)
AE: Asthenia [6, 7]: 11 (28) n (%)
AE: Decreased appetite [6, 7]: 8 (20) n (%)
AE: Diarrhea [6, 7]: 10 (25) n (%)
AE: Fatigue [6, 7]: 15 (38) n (%)
AE: Headache [6, 7]: 13 (33) n (%)
AE: Influenza-like illness [6, 7]: 15 (38) n (%)
AE: Nausea [6, 7]: 18 (45) n (%)
AE: Pruritus [6, 7]: 16 (40) n (%)
AE: Pyrexia [6, 7]: 8 (20) n (%)
AE: Rash [6, 7]: 26 (65) n (%)
AE: Vomiting [6, 7]: 7 (18) n (%)
AE: Anemia [6, 8]: 14 (33) n (%)
AE: Asthenia [6, 8]: 16 (38) n (%)
AE: Decreased appetite [6, 8]: 4 (10) n (%)
AE: Diarrhea [6, 8]: 9 (21) n (%)
AE: Fatigue [6, 8]: 15 (36) n (%)
AE: Headache [6, 8]: 18 (43) n (%)
AE: Influenza-like illness [6, 8]: 19 (45) n (%)
AE: Nausea [6, 8]: 14 (33) n (%)
AE: Pruritus [6, 8]: 21 (50) n (%)
AE: Pyrexia [6, 8]: 14 (33) n (%)
AE: Rash [6, 8]: 15 (36) n (%)
AE: Vomiting [6, 8]: 5 (12) n (%)
AE: Anemia [6, 9]: 14 (35) n (%)
AE: Asthenia [6, 9]: 7 (18) n (%)
AE: Decreased appetite [6, 9]: 6 (15) n (%)
AE: Diarrhea [6, 9]: 12 (30) n (%)
AE: Fatigue [6, 9]: 14 (35) n (%)
AE: Headache [6, 9]: 13 (33) n (%)
AE: Influenza-like illness [6, 9]: 11 (28) n (%)
AE: Nausea [6, 9]: 16 (40) n (%)
AE: Pruritus [6, 9]: 19 (48) n (%)
AE: Pyrexia [6, 9]: 8 (20) n (%)
AE: Rash [6, 9]: 16 (40) n (%)
AE: Vomiting [6, 9]: 7 (18) n (%)
AE: Anemia [6, 10]: 19 (49) n (%)
AE: Asthenia [6, 10]: 14 (36) n (%)
AE: Decreased appetite [6, 10]: 15 (39) n (%)
AE: Diarrhea [6, 10]: 13 (33) n (%)
AE: Fatigue [6, 10]: 15 (39) n (%)
AE: Headache [6, 10]: 16 (41) n (%)
AE: Influenza-like illness [6, 10]: 20 (51) n (%)
AE: Nausea [6, 10]: 22 (56) n (%)
AE: Pruritus [6, 10]: 22 (56) n (%)
AE: Pyrexia [6, 10]: 11 (28) n (%)
AE: Rash [6, 10]: 14 (36) n (%)
AE: Vomiting [6, 10]: 12 (31) n (%)
electrocardiographic or vital signs parameters ([6]; all T/PR arms): No relevant changes
